According to US4155909A, “2-Alkyl nicotinoids and processes for their production” (priority 1977, dated 1979):
Values joined by “and” are separate entries in the source; they are usually repeats but may differ in a detail not shown here. Equal entries are not always repeated.

Columns and labels:
[1] = test system: mammals; conditions: Haglid et al., compared with nicotine; cited from earlier work
[2] = test system: Aphids; assay: Aphid spray test on replicate ivy cuttings infested with Aphids; format: in vivo; conditions: for Avg. % Dead / % Dead / Insecticidal Effectiveness: aphids; for Avg. % Dead: average of 3 replicates; for Avg. % Dead / % Dead / No. of Aphids Alive / No. of Aphids Dead: 5 ml sprayed, 18 hours; for % Dead / No. of Aphids Alive / No. of Aphids Dead: per replicate (1, 2, 3); for Insecticidal Effectiveness: as compared to nicotine (100%); for No. of Aphids Alive / No. of Aphids Dead: 100 mg in 10 ml ethanol + 40 ml water with surfactant
Procedure: A 100 mg sample of the candidate compound was dissolved in 10 ml absolute ethanol. To the solution was added 40 ml tap water containing 0.5 ml of 1% surfactant. A 5 ml sample of each solution was sprayed on to replicate ivy cuttings infested with Aphids. The results, tabulated below in Table I were recorded 18 hours following the application of the sprays. […]
(§1) In the first column, the LD50 of the compounds in mice is a measure of their mammalian toxicity. The second column illustrates the effectiveness of the candidate compounds as insecticides as compared to nicotine, whereas the third column is the ratio of insecticidal effectiveness to mammalian toxicity.

[3] = Mammalian toxicity, LD50 in mice; format: in vivo, mouse; conditions: in vivo; mouse; measure of mammalian toxicity
Text: as §1

[4] = test system: female house flies; assay: Topical application to the notum of female house flies; format: in vivo; conditions: for insecticidal effectiveness in words: common houseflies, compared with nicotine; for Avg. % Dead / Percent Dead, Run 1 / Percent Dead, Run 2: house flies, 50 mg in 0.4 ml ethanol, 0.3 μl applied, 24 hours; for Avg. % Dead: average of Run 1 and Run 2
Procedure: A 50 mg sample of the candidate compound was dissolved on 0.4 ml absolute ethanol. A 0.3 μl sample of the solution was applied to the notum of female house flies which has been anesthetized with ether. Results were read twenty-four hours later.

[5] = test system: mouse; assay: Mammalian toxicity, LD50 in mice; format: in vivo; conditions: compared with nicotine
Text: as §1

SMILES | nicotinic / pharmacological activity in words [1] | Avg. % Dead [2] [%] | % Dead ([2]; 1080 min) | Insecticidal Effectiveness [2] [%] | No. of Aphids Alive [2] | No. of Aphids Dead [2] | LD50 [3] [mg/kg] | insecticidal effectiveness in words [4] | Avg. % Dead [4] [%] | Percent Dead, Run 1 [4] [%] | Percent Dead, Run 2 [4] [%] | mammalian toxicity in words [5] | % Dead [2] [%]
Cc1ccc(C2CCCN2C)cn1 (centres unmarked) [6-methylnicotine] | identical in pharmacological activity to nicotine itself | – | – | – | – | – | – | – | – | – | – | – | –
Cc1ccncc1C1CCCN1C (centres unmarked) [4-methylnicotine] | little or no nicotinic activity | – | – | – | – | – | – | – | – | – | – | – | –
Cc1ncccc1C1CCCN1 (centres unmarked) [2-methylnornicotine, 2-Methyl-3-(2-pyrrolidinyl)pyridine] | – | 3 | 2% and 7% and 0% | 3 | 39 and 27 and 30 | 2 and 0 | 100 | only slightly less effective | 70 | 80 | 60 | – | –
Cc1ncccc1C1CCCCN1 (centres unmarked) [2-methylanabasine, 2-Methyl-3-(2-piperidinyl)pyridine] | – | 52 | 62% and 50% and 43% | 52 | 24 and 27 and 87 | 39 and 27 and 66 | 15.7 | – | – | – | – | – | –
Cc1ccc(C2CCCN2C)c(C)n1 (centres unmarked) [2,6-dimethylnicotine, 2,6-Dimethyl-3-(1-methyl-2-pyrrolidinyl)pyridine] | – | 6 | 0% and 13% and 4% | 6 | 32 and 20 and 87 | 0 and 3 and 66 | 41 | – | – | – | – | – | –
Cc1ncccc1C1CCCN1C (centres unmarked) [2-methylnicotine, 2-Methyl-3-(1-methyl-2-pyrrolidinyl)pyridine] | – | 6 | 4% and 5% and 8% | – | 54 and 38 and 55 | 2 and 5 | – | as effective an insecticide as nicotine itself | 100 | 100 | 100 | lower mammalian toxicity than nicotine | –
CN1CCC[C@H]1c1cccnc1 [l-nicotine, reference compound] | – | 100 | – | – | 0 | 45 and 27 and 39 | 0.26 | – | 100 | 100 | 100 | – | 100
